In one assay the test system is Aspergillus flavus. Kind of assay: Disk diffusion, Aspergillus flavus. The format is cell-based. Conditions: Fungi, 8.0 mm disks, 10 μL. Here is the method: (§1) The disk diffusion method was used for determination of the antimicrobial activity using ampicillin, gentamicin and amphotericin B as reference drugs. The results were recorded for each compounds as the average diameter as inhibition zones (IZ) of bacterial or fungal growth around the discs in mm as shown in Table 2.
(§2) Antimicrobial activities were carried out against highly pathogenic strains; three strains of Gram positive bacteria (Bacillus subtilis, Staphylococcus aureus and Streptococcus faecalis), four strains of Gram negative bacteria (Escherichia coli, Neisseria gonorrhoeae, Pseudomonas aeruginosa and Salmonella typhimurium) and three fungi strains (Aspergillus flavus, Aspergillus fumigatus and Candida albicans) isolated from primary agar plates. Antimicrobial activity of the tested samples was determined using a modified Kriby-Bauer disk diffusion method. Briefly, 100 µL of the test bacteria/fungi were grown in 10 mL of fresh media until they reached a count approximately 10^8 cells/mL for bacteria or 10^5 cells/mL for fungi. 100 µL of microbial suspension was spread onto agar plates corresponding to the broth in which they were maintained. The inoculated plates of bacterial strains were incubated at 35–37 °C for 24–48 h, while the inoculated plates of fungal strains such as A. flavus and A. fumigatus were incubated at 25 °C for 48 h and yeast as C. albicans was incubated at 30 °C for 24–48 h.
(§3) The agar disk diffusion (qualitative) method was used in this investigation for determination of the preliminary antibacterial and antifungal activities. The agar used was Mueller-Hinton agar plates that are rigorously tested for composition and pH. Further the depth of the agar in the plate is a factor to be considered in the disk diffusion method.
(§4) Reference drugs: ampicillin was used as a standard antibacterial drug for Gram positive bacteria, gentamicin as a standard antibacterial drug for Gram negative bacteria and amphotericin B as antifungal standard drug.
(§5) Bacterial and fungal strains were spread onto the surface of the agar plates using sterile cotton swabs. For evaluation of antibacterial activities, blank paper disks (Schleicher & Schuell, Alicante, Spain) with a diameter of 8.0 mm were saturated with 10 μL of tested concentration of the stock solutions. Disks were dried and then placed onto inoculated agar plates. The plates of bacterial strains were reincubated at 35–37 °C for 24–48 h, while the plates of fungal strains such as A. flavus and A. fumigatus were reincubated at 25 °C for 48 h and yeast as C. albicans was reincubated at 30 °C for 24–48 h as mentioned above. […] For an accurate analysis, tests were run in triplicate for each strain to avoid any error as described in Table 2.
(§6) Disk diffusion method for filamentous fungi testing by using approved standard method (M02-A11) developed by the CLSI for evaluating the susceptibilities of filamentous fungi to antifungal agents. Disk diffusion method for yeasts developed by using approved standard method (M44-A2) by the CLSI [44]. Agar-based methods such as disk diffusion can be good alternatives because they are simpler and faster than broth-based methods.
On the technique in general: In agar diffusion tests the substance spreads into inoculated agar from a disc or well.

The next assay concerns SF-268 (CNS cancer). Description: In vitro cytotoxicity, SRB cell growth assay, SF-268. Conditions: Homo sapiens, SF-268, 48 h, read-out: IC50 (μg/mL) SF-268. Here is the method: (§7) The in vitro cytotoxic activity of the newly synthesized compounds against human breast cell line (MCF7), non-small cell lung cancer NCIH460, CNS cancer SF-268 and WI 38 (normal fibroblast cells) were evaluated using doxorubicin as the reference drug according to the method reported by Skehan et al..
(§8) The newly synthesized compounds were evaluated in vitro against three human cancer cell lines; which are MCF-7 (breast adenocarcinoma), NCI-H460 (non-small cell lung cancer) and SF-268 (CNS cancer), and WI 38 (normal fibroblast cells) were used in this study. MCF-7 was obtained from the European Collection of Cell Cultures (ECACC, Salisbury, UK) but NCI-H460, SF-268 and WI 38 were kindly provided by the National Cancer Institute (NCI, Cairo, Egypt). They grow as monolayer and routinely maintained RPMI-1640 medium supplemented with 5% heat inactivated fetal bovine serum (FBS), 2 mM glutamine and antibiotics (penicillin 100 U/mL, streptomycin 100 µg/mL), at 37 °C in a humidified atmosphere containing 5% CO2. Exponentially growing cells were obtained by plating 1.5 × 10^5 cells/mL for MCF-7 and SF-268, and 0.75 × 10^4 cells/mL for NCI-H460 followed by 24 h of incubation. The effect of the vehicle solvent (DMSO) on the growth of these cell lines was evaluated in all experiments by exposing untreated control cells to the maximum concentration (0.5%) of DMSO used in each assay.
(§9) The effect of compounds on the in vitro growth of human tumor cell lines were evaluated according to the procedure adopted by the National Cancer Institute ([…]) in the “In vitro Anticancer Drug Discovery Screen” that uses the protein-binding dye sulforhodamine B (SRB) to assess cell growth. In the assay protocol, all cells were incubated at 37 °C under humidified atmosphere containing 5% CO2. Briefly, exponentially cells growing in 96-well plates were then exposed for 48 h to five serial concentrations of each compound, starting from a maximum concentration of 150 μg/mL. Following this exposure period adherent cells were fixed, washed and stained. The bound stain was solubilized and the absorbance was measured at 492 nm in a plate reader (Bio-Tek Instruments Inc., Power wave XS, Winston, NC, USA). For each test compound and cell line, a dose response curve was obtained and the inhibitory concentration of 50% (IC50), corresponding to the concentration of the compounds that inhibited 50% of the net cell growth was calculated as described elsewhere. Doxorubicin was used as a positive control and tested in the same manner.

For assay [1], the system named is NCI-H460 (non-small cell lung cancer). Kind of assay: In vitro cytotoxicity, SRB cell growth assay, NCI-H460. As to conditions: Homo sapiens, NCI-H460, 48 h, read-out: IC50 (μg/mL) NCI-H460. Here is the method:
as §7, §8, §9

The subject of assay [2] is WI 38 (normal fibroblast cells). Kind of assay: In vitro cytotoxicity, SRB cell growth assay, normal cells WI 38. It counts as cell-based, human. As to conditions: Homo sapiens, WI-38, 48 h, 48 h exposure, non-cytotoxic = IC50 >100 μg/mL. Here is the method: as §7, §8, §9
The next assay has as its system Staphylococcus aureus. Kind of assay: Disk diffusion, Staphylococcus aureus. It counts as cell-based. Conditions: Gram positive, 8.0 mm disks, 10 μL. Here is the method:
as §1, §2, §3, §4, §5

A further assay deals with Escherichia coli. Kind of assay: Disk diffusion, Escherichia coli. The format is cell-based. Conditions: Gram negative, 8.0 mm disks, 10 μL. Here is the method: as §1, §2, §3, §4, §5
Assay [3] relates to MCF-7 (breast adenocarcinoma). Description: In vitro cytotoxicity, SRB cell growth assay, MCF-7. Conditions: Homo sapiens, MCF7, 48 h, read-out: IC50 (μg/mL) MCF-7. Here is the method: as §7, §8, §9
Another assay concerns Bacillus subtilis. Kind of assay: Disk diffusion, Bacillus subtilis. It counts as cell-based. Conditions: Gram positive, 8.0 mm disks, 10 μL. Here is the method: as §1, §2, §3, §4, §5
The test system of another assay is Aspergillus fumigatus. Description: Disk diffusion, Aspergillus fumigatus. It counts as cell-based. As to conditions: Fungi, 8.0 mm disks, 10 μL. Here is the method: as §1, §2, §3, §4, §5, §6
Another assay has as its system Pseudomonas aeruginosa. Kind of assay: Disk diffusion, Pseudomonas aeruginosa. It counts as cell-based. Conditions: Gram negative, 8.0 mm disks, 10 μL. Here is the method: as §1, §2, §3, §4, §5
A further assay relates to Neisseria gonorrhoeae. Kind of assay: Disk diffusion, Neisseria gonorrhoeae. The format is cell-based. As to conditions: Gram negative, 8.0 mm disks, 10 μL. Here is the method:
as §1, §2, §3, §4, §5

The next assay concerns Salmonella typhimurium. Description: Disk diffusion, Salmonella typhimurium. It counts as cell-based. Conditions: Gram negative, 8.0 mm disks, 10 μL. Here is the method: as §1, §2, §3, §4, §5
In another assay the test system is Candida albicans. Kind of assay: Disk diffusion, Candida albicans. It counts as cell-based. As to conditions: Fungi, 8.0 mm disks, 10 μL. Here is the method: as §1, §2, §3, §4, §5, §6
A further assay concerns Streptococcus faecalis. Description: Disk diffusion, Streptococcus faecalis. It counts as cell-based. Conditions: Gram positive, 8.0 mm disks, 10 μL. Here is the method:
as §1, §2, §3, §4, §5

In brackets after ≈: the same amount, converted by molar mass.

Take `Cc1cc(C)n(-c2nc3ccc(Br)cc3nc2-n2nc(C)cc2C)n1` [Compound 15, 6-Bromo-2,3-bis(3,5-dimethyl-1H-pyrazol-1-yl)quinoxaline]: the “Inhibition Zone Diameter (IZ) (mm) Aspergillus flavus” value in the assay with Aspergillus flavus is “R (R (IZ = 0 mm))”. Besides, the IC50 is 30.2 ± 2.04 µg/mL (≈ 76.1 µM) in the assay with SF-268 (CNS cancer), 22.7 ± 8.12 µg/mL (≈ 57.2 µM) in assay [1], 18.2 ± 4.03 µg/mL (≈ 45.7 µM) in assay [2] and 28.4 ± 5.8 µg/mL (≈ 71.5 µM) in assay [3]. For the same molecule, the “Inhibition Zone Diameter (IZ) (mm) Staphylococcus aureus” value with Staphylococcus aureus was found to be 9 mm. Also, the “Inhibition Zone Diameter (IZ) (mm) Escherichia coli” value in the assay on Escherichia coli amounted to 10 mm. In addition, in the assay on Bacillus subtilis, the “Inhibition Zone Diameter (IZ) (mm) Bacillus subtilis” value is recorded as 10 mm. Further, the “Inhibition Zone Diameter (IZ) (mm) Aspergillus fumigatus” value in the assay with Aspergillus fumigatus is on record as “R (R (IZ = 0 mm))”. For the same molecule, the “Inhibition Zone Diameter (IZ) (mm) Pseudomonas aeruginosa” value in the assay on Pseudomonas aeruginosa was 9 mm. The “Inhibition Zone Diameter (IZ) (mm) Neisseria gonorrhoeae” value in the assay on Neisseria gonorrhoeae is given as 9 mm. In the assay on Salmonella typhimurium, the “Inhibition Zone Diameter (IZ) (mm) Salmonella typhimurium” value was 10 mm. For the same molecule, in the assay with Candida albicans, the “Inhibition Zone Diameter (IZ) (mm) Candida albicans” value is on record as “R (R (IZ = 0 mm))”. Moreover, the “Inhibition Zone Diameter (IZ) (mm) Streptococcus faecalis” value in the assay on Streptococcus faecalis was found to be 9 mm.
On to `CC1(C)S[C@@H]2[C@H](NC(=O)[C@H](N)c3ccccc3)C(=O)N2[C@H]1C(=O)O` [Ampicillin, reference compound], for which the “Inhibition Zone Diameter (IZ) (mm) Staphylococcus aureus” value with Staphylococcus aureus is 22 mm. In the assay on Bacillus subtilis, the “Inhibition Zone Diameter (IZ) (mm) Bacillus subtilis” value worked out at 20 mm. In addition, the “Inhibition Zone Diameter (IZ) (mm) Streptococcus faecalis” value in the assay with Streptococcus faecalis turned out to be 19 mm.
Take `Cc1c[nH]nc2c3n[nH]cc(C)n-3c3cc(Br)ccc3n1-2` [Compound 12, 7-Bromo-4,11-dimethyl-2,13-dihydrobis[1,2,4]triazino[4,3-a:3',4'-c]quinoxaline]: the “Inhibition Zone Diameter (IZ) (mm) Aspergillus flavus” value with Aspergillus flavus is recorded as “R (R (IZ = 0 mm))”. Besides, the IC50 in the assay with SF-268 (CNS cancer) is 22.1 ± 2.81 µg/mL (≈ 64 µM); in [1], 34 ± 6.05 µg/mL (≈ 98.6 µM); in assay [2], 23 ± 8.2 µg/mL (≈ 66.5 µM); in assay [3] it was 35.2 ± 4.18 µg/mL (≈ 102 µM). Moreover, the “Inhibition Zone Diameter (IZ) (mm) Staphylococcus aureus” value in the assay on Staphylococcus aureus was found to be 19 mm. In the assay with Escherichia coli, the “Inhibition Zone Diameter (IZ) (mm) Escherichia coli” value is listed as 17 mm. Besides, the “Inhibition Zone Diameter (IZ) (mm) Bacillus subtilis” value in the assay with Bacillus subtilis was 18 mm. Further, in the assay with Aspergillus fumigatus, the “Inhibition Zone Diameter (IZ) (mm) Aspergillus fumigatus” value is “R (R (IZ = 0 mm))”. For the same molecule, in the assay on Pseudomonas aeruginosa, the “Inhibition Zone Diameter (IZ) (mm) Pseudomonas aeruginosa” value is given as 20 mm. The “Inhibition Zone Diameter (IZ) (mm) Neisseria gonorrhoeae” value in the assay on Neisseria gonorrhoeae is on record as “R (R (IZ = 0 mm))”. Besides, the “Inhibition Zone Diameter (IZ) (mm) Salmonella typhimurium” value in the assay on Salmonella typhimurium came to 18 mm. Also, the “Inhibition Zone Diameter (IZ) (mm) Candida albicans” value with Candida albicans is listed as “R (R (IZ = 0 mm))”. Also, the “Inhibition Zone Diameter (IZ) (mm) Streptococcus faecalis” value with Streptococcus faecalis is reported as 18 mm.
Consider `CNC(C)C1CCC(N)C(OC2C(N)CC(N)C(OC3OCC(C)(O)C(NC)C3O)C2O)O1` (centres unmarked) [Gentamicin, reference compound], for which the “Inhibition Zone Diameter (IZ) (mm) Escherichia coli” value in the assay with Escherichia coli was determined as 20 mm. Further, the “Inhibition Zone Diameter (IZ) (mm) Pseudomonas aeruginosa” value in the assay on Pseudomonas aeruginosa is reported as 17 mm. Besides, in the assay on Neisseria gonorrhoeae, the “Inhibition Zone Diameter (IZ) (mm) Neisseria gonorrhoeae” value is listed as 18 mm. Besides, in the assay with Salmonella typhimurium, the “Inhibition Zone Diameter (IZ) (mm) Salmonella typhimurium” value came out at 23 mm.

Values taken from article PMC6332220, “Synthesis, Characterization and Biological Evaluation of Some Quinoxaline Derivatives: A Promising and Potent New Class of Antitumor and Antimicrobial Agents” (Molecules, 2015).
